Measurements from patent publication US20100292231A1, “Indazole Compounds for Treating Inflammatory Disorders, Demyelinating Disorders and Cancers” (priority 2007, published 2010).
Like-named read-outs stand apart in the source and are kept apart here.

Experiments:
Assay in all cases: SelectScreen kinase specificity survey
Assay type in all cases: biochemical
[1] = molecular target: T1, MAP4K4 (HGK, ZC1) (Homo sapiens, UniProt O95819); conditions: estimated, abridged dose response curve, read-out: Kinase inhibitory activity EC50
T1 construct: purchased Invitrogen (SelectScreen platform)
In short: (§1)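 Each kinase was run with its own substrate and optical reporter at 100 micromolar ATP. Inhibitor was added in 5 graded increments, and EC50 was estimated by fitting the abridged dose-response curve to a 4-parameter Hill equation. The survey covered a 230-kinase panel.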

[2] = molecular target: T2, EPHA4 (Homo sapiens, UniProt P54764); conditions: estimated, abridged dose response curve, read-out: Kinase inhibitory activity EC50
T2 construct: purchased Invitrogen (SelectScreen service)
In short: as §1

[3] = molecular target: T3, NTRK3 (TRKC) (Homo sapiens, UniProt Q16288)
T3 construct: purchased Invitrogen, Inc. (SelectScreen platform)
In short: as §1

[4] = molecular target: T4, SRC (Homo sapiens, UniProt P12931); conditions: estimated, abridged dose response curve, read-out: Kinase inhibitory activity EC50
T4 construct: purchased Invitrogen (SelectScreen)
In short: as §1

[5] = molecular target: T5, GSK3A (GSK3 alpha) (Homo sapiens, UniProt P49840); conditions: estimated, abridged dose response curve, read-out: Kinase inhibitory activity EC50
T5 construct: purchased Invitrogen (SelectScreen platform)
In short: as §1

[6] = molecular target: T6, FGFR3 (Homo sapiens, UniProt P22607); conditions: estimated, abridged dose response curve, read-out: Kinase inhibitory activity EC50
T6 construct: purchased Invitrogen (SelectScreen platform)
In short: as §1

[7] = molecular target: T7, PRKD2 (PKD2) (Homo sapiens, UniProt Q9BZL6); conditions: estimated, abridged dose response curve, read-out: Kinase inhibitory activity EC50
T7 construct: purchased Invitrogen, Inc. (SelectScreen platform)
In short: as §1

[8] = molecular target: T8, MAPKAPK2 (Homo sapiens, UniProt P49137); conditions: estimated, abridged dose response curve, read-out: Kinase inhibitory activity EC50
T8 construct: purchased Invitrogen, Inc. (SelectScreen platform)
In short: as §1

[9] = molecular target: T9, HIPK1 (Myak) (Homo sapiens, UniProt Q86Z02); conditions: estimated, abridged dose response curve, read-out: Kinase inhibitory activity EC50
T9 construct: purchased Invitrogen (SelectScreen platform)
In short: as §1

[10] = molecular target: T10, PTK2B (FAK2, PYK2) (Homo sapiens, UniProt Q14289); conditions: estimated, abridged dose response curve, read-out: Kinase inhibitory activity EC50
T10 construct: purchased Invitrogen (SelectScreen service)
In short: as §1

[11] = molecular target: T11, PRKCH (PKC eta) (Homo sapiens, UniProt P24723); conditions: estimated, abridged dose response curve, read-out: Kinase inhibitory activity EC50
T11 construct: purchased Invitrogen, Inc. (SelectScreen platform)
In short: as §1

[12] = molecular target: T12, PDGFRB (PDGFR beta) (Homo sapiens, UniProt P09619); conditions: estimated, abridged dose response curve, read-out: Kinase inhibitory activity EC50
T12 construct: purchased Invitrogen (SelectScreen platform)
In short: as §1

[13] = molecular target: T13, CSNK1G2 (CK1 gamma 2) (Homo sapiens, UniProt P78368); conditions: estimated, abridged dose response curve, read-out: Kinase inhibitory activity EC50
T13 construct: purchased Invitrogen (SelectScreen platform)
In short: as §1

[14] = molecular target: T14, CSNK1A1 (CK1 alpha 1) (Homo sapiens, UniProt P48729); conditions: estimated, abridged dose response curve, read-out: Kinase inhibitory activity EC50
T14 construct: purchased Invitrogen (SelectScreen platform)
In short: as §1

[15] = molecular target: T15, MST1R (RON) (Homo sapiens, UniProt Q04912); conditions: estimated, abridged dose response curve, read-out: Kinase inhibitory activity EC50
T15 construct: purchased Invitrogen (SelectScreen platform)
In short: as §1

[16] = molecular target: T16, ABL2 (Arg) (Homo sapiens, UniProt P42684); conditions: estimated, abridged dose response curve, read-out: Kinase inhibitory activity EC50
T16 construct: purchased Invitrogen (SelectScreen platform)
In short: as §1

[17] = molecular target: T17, RPS6KA4 (MSK2) (Homo sapiens, UniProt O75676); conditions: estimated, abridged dose response curve, read-out: Kinase inhibitory activity EC50
T17 construct: purchased Invitrogen, Inc. (SelectScreen platform)
In short: as §1

[18] = molecular target: T18, EPHA5 (Homo sapiens, UniProt P54756); conditions: estimated, abridged dose response curve, read-out: Kinase inhibitory activity EC50
T18 construct: purchased Invitrogen (SelectScreen service)
In short: as §1

[19] = molecular target: T19, GRK5 (Homo sapiens, UniProt P34947)
T19 construct: purchased Invitrogen (SelectScreen platform)
In short: as §1

[20] = molecular target: T20, EPHB4 (Homo sapiens, UniProt P54760); conditions: estimated, abridged dose response curve, read-out: Kinase inhibitory activity EC50
T20 construct: purchased Invitrogen (SelectScreen service)
In short: as §1

[21] = molecular target: T21, PRKCD (PKC delta) (Homo sapiens, UniProt Q05655); conditions: estimated, abridged dose response curve, read-out: Kinase inhibitory activity EC50
T21 construct: purchased Invitrogen, Inc. (SelectScreen platform)
In short: as §1

[22] = molecular target: T22, FGFR3 K650E (Homo sapiens, UniProt P22607, K650E); conditions: estimated, abridged dose response curve, read-out: Kinase inhibitory activity EC50
T22 construct: purchased Invitrogen (SelectScreen platform)
In short: as §1

[23] = molecular target: T23, BRSK1 (SAD1) (Homo sapiens, UniProt Q8TDC3)
T23 construct: purchased Invitrogen, Inc. (SelectScreen platform)
In short: as §1

[24] = molecular target: T24, PRKACA (PKA, PKACA) (Homo sapiens, UniProt P17612); conditions: estimated, abridged dose response curve, read-out: Kinase inhibitory activity EC50
T24 construct: purchased Invitrogen (SelectScreen platform)
In short: as §1

[25] = molecular target: T25, MAP4K5 (KHS1) (Homo sapiens, UniProt Q9Y4K4); conditions: estimated, abridged dose response curve, read-out: Kinase inhibitory activity EC50
T25 construct: purchased Invitrogen (SelectScreen platform)
In short: as §1

[26] = molecular target: T26, PRKD1 (PKC mu, PKD1) (Homo sapiens, UniProt Q15139); conditions: estimated, abridged dose response curve, read-out: Kinase inhibitory activity EC50
T26 construct: purchased Invitrogen, Inc. (SelectScreen platform)
In short: as §1

T6 sequence (P22607 23-806): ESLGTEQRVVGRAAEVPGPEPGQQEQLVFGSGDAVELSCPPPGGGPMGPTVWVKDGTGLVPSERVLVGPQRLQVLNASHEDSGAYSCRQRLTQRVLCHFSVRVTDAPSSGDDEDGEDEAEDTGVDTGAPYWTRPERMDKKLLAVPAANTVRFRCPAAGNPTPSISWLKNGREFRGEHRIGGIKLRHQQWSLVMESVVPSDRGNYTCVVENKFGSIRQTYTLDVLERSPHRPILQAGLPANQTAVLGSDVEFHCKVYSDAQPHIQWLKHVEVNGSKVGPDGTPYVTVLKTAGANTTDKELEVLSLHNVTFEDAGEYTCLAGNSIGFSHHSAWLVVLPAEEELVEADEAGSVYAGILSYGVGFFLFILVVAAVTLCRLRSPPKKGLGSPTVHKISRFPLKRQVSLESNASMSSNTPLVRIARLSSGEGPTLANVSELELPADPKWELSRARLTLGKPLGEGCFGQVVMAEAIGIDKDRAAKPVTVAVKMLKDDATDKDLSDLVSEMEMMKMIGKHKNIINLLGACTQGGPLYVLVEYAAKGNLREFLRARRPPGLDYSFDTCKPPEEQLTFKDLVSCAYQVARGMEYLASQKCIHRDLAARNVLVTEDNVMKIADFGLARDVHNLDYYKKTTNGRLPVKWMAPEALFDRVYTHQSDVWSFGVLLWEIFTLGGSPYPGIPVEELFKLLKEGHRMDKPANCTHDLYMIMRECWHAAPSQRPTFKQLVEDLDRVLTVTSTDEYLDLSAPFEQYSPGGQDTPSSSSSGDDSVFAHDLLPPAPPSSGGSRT
T25 sequence (Q9Y4K4 whole entry): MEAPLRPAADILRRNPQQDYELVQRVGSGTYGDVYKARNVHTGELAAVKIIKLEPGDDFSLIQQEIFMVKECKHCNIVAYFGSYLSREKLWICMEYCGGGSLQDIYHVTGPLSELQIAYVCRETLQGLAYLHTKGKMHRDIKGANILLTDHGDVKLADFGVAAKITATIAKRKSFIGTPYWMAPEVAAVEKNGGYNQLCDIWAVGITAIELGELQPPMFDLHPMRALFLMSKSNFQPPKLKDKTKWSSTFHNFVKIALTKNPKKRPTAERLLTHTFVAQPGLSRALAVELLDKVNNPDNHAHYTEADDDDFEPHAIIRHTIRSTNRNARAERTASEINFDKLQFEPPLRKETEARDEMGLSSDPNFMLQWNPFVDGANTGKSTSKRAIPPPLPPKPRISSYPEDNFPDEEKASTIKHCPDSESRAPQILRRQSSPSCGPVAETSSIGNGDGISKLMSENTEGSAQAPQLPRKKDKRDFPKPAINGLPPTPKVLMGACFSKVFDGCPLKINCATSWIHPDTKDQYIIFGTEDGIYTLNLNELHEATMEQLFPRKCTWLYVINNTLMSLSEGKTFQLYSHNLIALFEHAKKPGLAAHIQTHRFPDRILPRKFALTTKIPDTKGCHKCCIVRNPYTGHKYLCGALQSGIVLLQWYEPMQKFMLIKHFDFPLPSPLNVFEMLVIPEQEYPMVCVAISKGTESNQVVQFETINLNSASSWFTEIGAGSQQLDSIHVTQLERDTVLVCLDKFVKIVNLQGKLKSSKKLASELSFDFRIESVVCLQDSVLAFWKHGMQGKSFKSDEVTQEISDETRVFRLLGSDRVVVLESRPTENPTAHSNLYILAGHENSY
T8 sequence (P49137 whole entry): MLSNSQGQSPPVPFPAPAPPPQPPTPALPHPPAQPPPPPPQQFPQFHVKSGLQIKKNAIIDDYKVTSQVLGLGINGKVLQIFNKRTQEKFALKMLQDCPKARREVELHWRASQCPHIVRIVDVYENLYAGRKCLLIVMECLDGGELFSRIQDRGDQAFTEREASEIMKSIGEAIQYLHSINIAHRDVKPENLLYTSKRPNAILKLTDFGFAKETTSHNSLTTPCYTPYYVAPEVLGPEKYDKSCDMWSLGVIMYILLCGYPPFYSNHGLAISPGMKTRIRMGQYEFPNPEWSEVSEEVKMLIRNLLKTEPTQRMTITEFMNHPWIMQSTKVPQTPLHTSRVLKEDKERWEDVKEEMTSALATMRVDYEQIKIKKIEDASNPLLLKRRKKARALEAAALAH
T23 sequence (Q8TDC3 whole entry): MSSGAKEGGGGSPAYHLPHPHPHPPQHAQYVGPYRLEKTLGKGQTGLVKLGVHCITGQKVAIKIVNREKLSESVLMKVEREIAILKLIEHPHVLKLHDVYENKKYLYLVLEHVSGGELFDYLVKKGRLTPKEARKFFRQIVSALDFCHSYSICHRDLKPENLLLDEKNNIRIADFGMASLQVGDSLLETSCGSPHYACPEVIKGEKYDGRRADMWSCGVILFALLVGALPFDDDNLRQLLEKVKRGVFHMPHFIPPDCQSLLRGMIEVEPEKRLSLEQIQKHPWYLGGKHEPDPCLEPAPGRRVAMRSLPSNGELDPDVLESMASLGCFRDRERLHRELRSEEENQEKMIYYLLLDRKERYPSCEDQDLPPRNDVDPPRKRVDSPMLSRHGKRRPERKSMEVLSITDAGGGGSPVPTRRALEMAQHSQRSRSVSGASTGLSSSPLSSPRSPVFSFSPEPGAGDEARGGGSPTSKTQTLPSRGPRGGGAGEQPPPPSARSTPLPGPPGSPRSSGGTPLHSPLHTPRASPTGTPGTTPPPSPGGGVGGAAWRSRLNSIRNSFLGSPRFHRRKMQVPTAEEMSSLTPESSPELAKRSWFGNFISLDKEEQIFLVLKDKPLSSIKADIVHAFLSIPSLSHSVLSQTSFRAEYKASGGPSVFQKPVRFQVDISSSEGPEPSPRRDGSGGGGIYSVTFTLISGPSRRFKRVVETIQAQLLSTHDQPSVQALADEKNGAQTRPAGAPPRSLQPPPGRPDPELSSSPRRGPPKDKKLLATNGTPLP
T10 sequence (Q14289 whole entry): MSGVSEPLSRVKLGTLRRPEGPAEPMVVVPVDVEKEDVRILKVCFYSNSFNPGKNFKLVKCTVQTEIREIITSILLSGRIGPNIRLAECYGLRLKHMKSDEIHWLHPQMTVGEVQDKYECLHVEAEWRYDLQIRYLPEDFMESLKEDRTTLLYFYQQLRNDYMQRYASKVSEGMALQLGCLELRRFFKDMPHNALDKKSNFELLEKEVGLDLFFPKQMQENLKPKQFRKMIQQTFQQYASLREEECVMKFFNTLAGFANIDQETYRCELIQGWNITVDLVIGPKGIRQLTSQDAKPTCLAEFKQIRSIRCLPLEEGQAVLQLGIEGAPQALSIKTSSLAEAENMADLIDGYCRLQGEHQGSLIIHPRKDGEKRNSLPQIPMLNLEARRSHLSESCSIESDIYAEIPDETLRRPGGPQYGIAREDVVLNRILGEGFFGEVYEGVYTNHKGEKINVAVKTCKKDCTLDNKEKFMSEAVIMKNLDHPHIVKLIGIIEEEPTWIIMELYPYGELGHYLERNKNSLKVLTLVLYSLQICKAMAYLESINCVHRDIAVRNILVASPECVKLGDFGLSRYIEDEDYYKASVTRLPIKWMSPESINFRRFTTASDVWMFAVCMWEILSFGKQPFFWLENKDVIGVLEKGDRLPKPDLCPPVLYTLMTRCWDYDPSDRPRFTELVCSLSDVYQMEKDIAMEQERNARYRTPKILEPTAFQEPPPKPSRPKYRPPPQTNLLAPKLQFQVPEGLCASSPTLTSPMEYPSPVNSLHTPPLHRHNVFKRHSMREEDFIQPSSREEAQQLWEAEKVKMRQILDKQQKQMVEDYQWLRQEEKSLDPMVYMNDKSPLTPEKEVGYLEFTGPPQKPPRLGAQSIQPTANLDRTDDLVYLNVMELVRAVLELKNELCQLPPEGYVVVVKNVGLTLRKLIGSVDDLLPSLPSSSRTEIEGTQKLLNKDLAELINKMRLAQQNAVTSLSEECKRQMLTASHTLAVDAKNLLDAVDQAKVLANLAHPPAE
T14 sequence (P48729 whole entry): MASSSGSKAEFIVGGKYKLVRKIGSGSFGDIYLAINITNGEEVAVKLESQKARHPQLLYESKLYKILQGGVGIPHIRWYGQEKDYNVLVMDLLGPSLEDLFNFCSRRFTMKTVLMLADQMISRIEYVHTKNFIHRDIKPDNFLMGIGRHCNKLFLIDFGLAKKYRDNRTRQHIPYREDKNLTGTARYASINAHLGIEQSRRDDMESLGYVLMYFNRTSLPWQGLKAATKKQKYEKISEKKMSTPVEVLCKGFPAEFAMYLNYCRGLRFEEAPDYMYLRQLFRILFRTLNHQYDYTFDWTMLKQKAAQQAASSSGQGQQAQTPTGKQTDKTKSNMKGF
T26 sequence (Q15139 whole entry): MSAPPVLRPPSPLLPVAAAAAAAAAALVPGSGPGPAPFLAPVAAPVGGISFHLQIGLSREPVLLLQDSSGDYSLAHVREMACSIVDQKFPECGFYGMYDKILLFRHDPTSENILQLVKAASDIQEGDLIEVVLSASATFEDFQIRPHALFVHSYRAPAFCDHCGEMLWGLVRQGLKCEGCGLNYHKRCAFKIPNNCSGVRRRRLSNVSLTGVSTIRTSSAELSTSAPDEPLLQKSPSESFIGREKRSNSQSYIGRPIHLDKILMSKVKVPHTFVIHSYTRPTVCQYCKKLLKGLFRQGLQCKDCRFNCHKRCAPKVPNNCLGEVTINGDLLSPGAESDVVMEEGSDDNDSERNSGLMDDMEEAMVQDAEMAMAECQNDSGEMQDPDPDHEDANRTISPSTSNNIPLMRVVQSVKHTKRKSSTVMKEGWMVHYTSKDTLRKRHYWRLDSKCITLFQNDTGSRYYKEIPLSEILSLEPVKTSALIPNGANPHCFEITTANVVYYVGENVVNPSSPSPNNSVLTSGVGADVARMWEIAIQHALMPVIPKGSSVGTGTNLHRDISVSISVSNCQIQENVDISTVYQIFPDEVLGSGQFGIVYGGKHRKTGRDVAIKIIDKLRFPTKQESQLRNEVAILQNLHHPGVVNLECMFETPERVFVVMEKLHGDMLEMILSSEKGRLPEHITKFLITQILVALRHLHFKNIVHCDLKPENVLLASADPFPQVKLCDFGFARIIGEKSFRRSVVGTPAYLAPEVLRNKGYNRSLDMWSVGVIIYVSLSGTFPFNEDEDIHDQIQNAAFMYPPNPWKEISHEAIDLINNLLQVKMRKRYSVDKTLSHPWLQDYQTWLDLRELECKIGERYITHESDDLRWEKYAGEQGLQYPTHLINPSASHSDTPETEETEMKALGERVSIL

SMILES	EC50 [1]	EC50 [2]	EC50 [4]	EC50 [5]	EC50 [6]	EC50 [7]	EC50 [8]	EC50 [9]	EC50 [10]	EC50 [11]	EC50 [12]	EC50 [13]	EC50 [14]	EC50 [15]	EC50 [16]	EC50 [17]	EC50 [18]	EC50 [20]	EC50 [21]	EC50 [22]	also measured
CN(C)CCCNc1ccc2ncn3c4ccc5[nH]ncc5c4c(=O)c1c23 [Compound (IV)]	> 5 µM	> 5 µM	0.437 µM	3.62 µM	3.21 µM	0.759 µM	> 5 µM	1.21 µM	> 5 µM	2.13 µM	0.278 µM	> 5 µM	> 5 µM	> 5 µM	2.87 µM	> 5 µM	> 5 µM	> 5 µM	> 5 µM	> 5 µM	EC50 ([3]; NTRK3 (TRKC), estimated, abridged dose response curve, read-out: Kinase inhibitory activity EC50): 0.24 µM; EC50 ([19]; GRK5, estimated, abridged dose response curve, read-out: Kinase inhibitory activity EC50): > 5 µM; EC50 ([23]; BRSK1 (SAD1), estimated, abridged dose response curve, read-out: Kinase inhibitory activity EC50): 1.39 µM; EC50 [24]: > 5 µM; EC50 [25]: > 5 µM; EC50 [26]: 0.494 µM
CCN(CC)CCNc1ccc2ncn3c4ccc(O)cc4c(=O)c1c23 [Symadex, 5-(2-(diethylamino)ethylamino)-8-hydroxy-6H-imidazo[4,5,1-de]acridin-6-one, reference compound]	3.13 µM	> 5 µM	4.41 µM	> 5 µM	> 5 µM	0.292 µM	> 5 µM	> 5 µM	> 5 µM	> 5 µM	1.79 µM	> 5 µM	3.48 µM	> 5 µM	3.21 µM	> 5 µM	> 5 µM	> 5 µM	> 5 µM	> 5 µM	EC50 [3]: 3.72 µM; EC50 [19]: > 5 µM; EC50 [23]: 1.93 µM; EC50 [24]: > 5 µM; EC50 [25]: 2.43 µM; EC50 [26]: 0.217 µM
